Assay results taken from US4067997A, “Synergistic microbecidal composition and method” (priority 1976, dated 1978).

What was measured:
Pneumococci = assay: MIC, broth dilution (Examples I/II); type: cell-based, pneumococcus (63001); conditions: Table 8, Pneumococci
Protocol: (§1) In order to establish comparative bactericidal and fungicidal results with homologous fatty acids, a series of experiments was performed with thirty straight-chain fatty acids and derivatives thereof. Eight different gram-negative and twelve different gram-positive organisms, representing a very broad spectrum of organisms, were used in these experiments including the fungus Candida (a yeast). Additionally, fatty acids were chosen to show the effects of saturation versus unsaturation, in the fatty acid claim. Standard solutions of the fatty acids and their derivatives were prepared by first dissolving the weighed compounds in 1 to 2 ml of 95% ethanol and immediately pouring this solution into 200 ml of Tripticase Soy Broth. These lipid compounds which are insoluble in water and broth precipitated into very small crystals or droplets. The tubes containing the suspension were warmed to approximately 70° C and were then placed in an ultrasonic tank for further solubilization of the lipid derivatives.
(§2) Standard solutions (or suspensions) at 1,000 μg/ml were twofold serially diluted with additional broth to a concentration of 125 μg/ml. A 4-ml amount of each dilution was then quickly, and with constant agitation, dispensed into appropriately labeled screw-capped glass tubes (16 by 125 mm). The tubes were sterilized with steam at 15 psi for 15 minutes. After sterilization, all tubes were cooled and incubated overnight at 35° C to insure sterility.
(§3) All compounds were compared on a molar (micromoles/milliliter) rather than on a mass basis. In the following lists of organisms used, those followed by a parenthetical number are registered with the American Type Culture Collection (ATCC); the remainder were isolates from Providence Hospital or Northland Laboratory.
(§4) One drop (0.04 ± 0.01 ml) of an 18-hr broth culture containing 10^7 and 10^9 organisms/ml was added to each dilution of the test compound, as well as to a tube of plain broth which served as the positive control. After inoculation, the contents of each tube were well mixed, and the tubes were incubated at 35° C in a 5% carbon dioxide + […] atmosphere.
(§5) The MIC is defined as the lowest concentration of compound at which no […] evidence of growth was observed when turbidity of the inoculated broth dilutions was compared with control tubes. […] Only a one-tube difference between the bactericidal and bacteriostatic concentrations was normally observed.
(§6) Standard solutions (1000 μg/ml) of three fatty acids and polyglycerol esters thereof were prepared as described in Example I. Also sucrose esters were prepared by transferring the weighed compounds (0.2 gm. dissolved in 1 ml absolute methanol) into 200 ml of sterile Trypticase Soy Broth (TSB). These standard solutions (1000 μg/ml) were twofold serially diluted with additional sterile broth to a concentration of 125 μg/ml. A 3.8 aliquot of each dilution was asceptically delivered into sterile screw-capped culture tubes. All tubes were incubated overnight at 36° C to insure sterility. The microorganisms used in this example were the same as those used in Example I.
(§7) The inoculum, 0.05 ml of an 13-24 hour TSB culture (approximately 10^9 organisms/ml) was asceptically delivered into all dilutions of the compounds, mixed well, and incubated at 36° C. A tube of inoculated broth without the compound served as a positive control and an uninoculated set of dilutions incubated along with the test dilutions, served as a negative control.
(§8) In those cases in which the test compound itself caused turbidity, an aliquot (0.015 ml) of the mixed broth was inoculated onto an agar plate and incubated at 36° C for examination, as described in Example I. The control procedure of Example I was also repeated. The lauric, capric, and oleic acids were used as internal controls and for comparison to Example I. The minimal inhibitory concentrations (μmole/ml) for the compounds studied are given in Tables 7 and 8.

Micrococci = assay: MIC, broth dilution (Examples I/II); type: cell-based, Micrococcus sp.; conditions: Table 8, Micrococci
Protocol: as §1, §2, §3, §4, §5, §6, §7, §8

Nocardia asteroides [1] = assay: MIC, broth dilution (Examples I/II); type: cell-based, Nocardia asteroids (3308); conditions: Table 8, Nocardia asteroides; for MIC (second value, in parentheses): parentheses not explained
Protocol: as §1, §2, §3, §4, §5, §6, §7, §8

Streptococcus Group A = assay: MIC, broth dilution (Examples I/II); type: cell-based, beta-hemolytic streptococci Group A; conditions: Table 8, Strep. Grp. A; for MIC (second value, in parentheses): parentheses not explained
Protocol: as §1, §2, §3, §4, §5, §6, §7, §8

Corynebacteria = assay: MIC, broth dilution (Examples I/II); type: cell-based, Corynebacterium sp. (10700); conditions: Table 8, Corynebacteria; for MIC (second value, in parentheses): parentheses not explained
Protocol: as §1, §2, §3, §4, §5, §6, §7, §8

S. epidermidis = assay: MIC, broth dilution (Examples I/II); type: cell-based; conditions: for MIC: Table 8, Staph. epider., > = no inhibition, max. tested
Protocol: as §1, §2, §3, §4, §5, §6, §7, §8

Sarcina = assay: MIC, broth dilution (Examples I/II); type: cell-based, Sarcina lutea (9431); conditions: for MIC: Table 8, Sarcina, > = no inhibition, max. tested
Protocol: as §1, §2, §3, §4, §5, §6, §7, §8

Group A Strep. = assay: MIC of potassium soaps of unsaturated fatty acids (Example III); type: cell-based, Group A β-hemolytic Streptococci; conditions: Table 10, Group A Strep.
Streptococcus Group D = assay: MIC, broth dilution (Examples I/II); type: cell-based; conditions: Table 3, Streptococcus Group D
Protocol: as §1, §2, §3, §4, §5, §6, §7, §8

Corynebacterium sp. = assay: MIC on mass basis (Example V procedure); type: cell-based; conditions: Table 11, Corynebacterium sp.
Protocol: (§9) The essential procedure of Example I was followed with a series of phenolic compounds, with the exception that the test method was conducted on a mass (μg/ml) basis rather than a molecular (mol/ml) basis of the foregoing tests, since the long established phenol-coeffecient test is on a mass rather than molecular basis. Additionally, a different but closely related group of organisms were used in this test, in order to give a complete representative span on gram-negative, gram-positive and fungus organisms. Additionally, the phenolic derivatives chosen for test purposes include a number of derivatives which are presently accepted by the FDA as food-grade phenolic microbicides.

Streptococcus mutans = assay: MIC on mass basis (Example V procedure); type: cell-based, Streptococcus mutans (ATCC 10441)
Protocol: as §9
(§10) The same procedure of Example V was repeated but with combinations of mono-laurin (GML).
(§11) The procedure of Example V was repeated with combinations of glycerol mono-laurin (GML) and ethylenediamine tetraacetic acid (EDTA) as the calcium salt and in combination with BHA.

Saccharomyces cerevisiae = assay: MIC on mass basis (Example V procedure); type: cell-based
Protocol: as §9, §10, §11

Streptococcus agalactiae = assay: MIC on mass basis (Example V procedure); type: cell-based
Protocol: as §9, §10, §11

Staphylococcus aureus = assay: MIC on mass basis (Example V procedure); type: cell-based
Protocol: as §9, §10, §11

Nocardia asteroides [2] = assay: MIC on mass basis (Example V procedure); type: cell-based
Protocol: as §9, §10, §11

Pseudomonas aeruginosa = assay: MIC on mass basis (Example V procedure); type: cell-based
Protocol: as §9, §10, §11

Escherichia coli = assay: MIC on mass basis (Example V procedure); type: cell-based
Protocol: as §9, §10, §11

Candida albicans = assay: MIC on mass basis (Example V procedure); type: cell-based
Protocol: as §9, §10, §11

## Sucrose myristate
Pneumococci
  MIC: 230 µM
Micrococci
  MIC: 230 µM
Nocardia asteroides [1]
  MIC: 230 µM
  MIC (second value, in parentheses): 110 µM
Streptococcus Group A
  MIC: 50 µM
  MIC (second value, in parentheses): 110 µM
Corynebacteria
  MIC: 110 µM
  MIC (second value, in parentheses): 110 µM
S. epidermidis
  MIC: > 1840 µM
Sarcina
  MIC: > 1840 µM

## CCCCCC=CCCCC=CCCCCCC(=O)O [.increment.^7 12]
Group A Strep.
  MIC: 20 µM

## CCCCCC=CCCCCCC=CCCCC(=O)O [.increment.^5 12]
Group A Strep.
  MIC: 20 µM

## CCCCCC=CCCCCC=CCCCCC(=O)O [.increment.^6 12]
Group A Strep.
  MIC: 10 µM

## CCCCCCCC=CCCC=CCCCCC(=O)O [.increment.^6 10]
Group A Strep.
  MIC: 10 µM

## CCCCC/C=C/CC/C=C/CCCCCCC(=O)O [.increment.^8 12]
Group A Strep.
  MIC: 20 µM

## Sucrose linoleate
Pneumococci
  MIC: 50 µM
Micrococci
  MIC: 820 µM
Nocardia asteroides [1]
  MIC: 410 µM
  MIC (second value, in parentheses): 1660 µM
Streptococcus Group A
  MIC: 410 µM
  MIC (second value, in parentheses): 820 µM
Corynebacteria
  MIC: > 1660 µM
  MIC (second value, in parentheses): 1660 µM
S. epidermidis
  MIC: > 1660 µM
Sarcina
  MIC: > 1660 µM

## O=C(O)CCCCCCCCCCC(=O)O [Dodecanedioic acid]
Streptococcus Group D
  MIC: Ni

## Sucrose elaidate
Pneumococci
  MIC: 200 µM
Micrococci
  MIC: 820 µM
Nocardia asteroides [1]
  MIC: 200 µM
Streptococcus Group A
  MIC: 200 µM
Corynebacteria
  MIC: 1640 µM
S. epidermidis
  MIC: > 1640 µM
Sarcina
  MIC: > 1640 µM

## CCCCCCC=CCCCC=CCCCCC(=O)O [.increment.^6 11]
Group A Strep.
  MIC: 20 µM

## Sucrose oleate
Pneumococci
  MIC: 50 µM
Micrococci
  MIC: 210 µM
Nocardia asteroides [1]
  MIC: 410 µM
  MIC (second value, in parentheses): 210 µM
Streptococcus Group A
  MIC: > 1640 µM
  MIC (second value, in parentheses): 410 µM
Corynebacteria
  MIC: > 1640 µM
  MIC (second value, in parentheses): > 1640 µM
S. epidermidis
  MIC: > 1640 µM
Sarcina
  MIC: > 1640 µM

## Sucrose caprate
Pneumococci
  MIC: 60 µM
Micrococci
  MIC: 1000 µM
Nocardia asteroides [1]
  MIC: 250 µM
Streptococcus Group A
  MIC: 60 µM
Corynebacteria
  MIC: 250 µM
S. epidermidis
  MIC: > 2000 µM
Sarcina
  MIC: > 2000 µM

## Sucrose palmitate
Pneumococci
  MIC: 50 µM
Micrococci
  MIC: 260 µM
Nocardia asteroides [1]
  MIC: 430 µM
  MIC (second value, in parentheses): > 1720 µM
Streptococcus Group A
  MIC: 100 µM
  MIC (second value, in parentheses): 200 µM
Corynebacteria
  MIC: 430 µM
  MIC (second value, in parentheses): 260 µM
S. epidermidis; S. epidermis
  Inhibition in words: only ester which inhibits S. epidermis
S. epidermidis
  MIC: 860 µM
Sarcina; Sarcina
  Inhibition in words: only ester which inhibits S. epidermis and Sarcina
Sarcina
  MIC: 430 µM

## Sucrose laurate
Pneumococci
  MIC: 120 µM
Micrococci
  MIC: 1900 µM
Nocardia asteroides [1]
  MIC: 470 µM
  MIC (second value, in parentheses): 1900 µM
Streptococcus Group A
  MIC: 30 µM
  MIC (second value, in parentheses): 120 µM
Corynebacteria
  MIC: 470 µM
  MIC (second value, in parentheses): 230 µM
S. epidermidis
  MIC: > 1900 µM
Sarcina
  MIC: > 1900 µM

## CCCCCC=CCC=CCCCCCCCC(=O)O [.increment.^9 12]
Group A Strep.
  MIC: 10 µM

## 3(2)-tert-butyl-4-methoxyphenol [BHA]
Corynebacterium sp.
  MIC: 62.50 µg/mL
Streptococcus mutans; Table 11, Strepococcus mutans
  MIC: 62.50 µg/mL
Streptococcus mutans; Table 13, Streptococcus mutans
  MIC: 62.50 µg/mL
Streptococcus mutans; Table 14, Streptococcus mutans
  MIC: 62.50 µg/mL
Saccharomyces cerevisiae; Table 13, Saccharomyces cerevisiae
  MIC: 125 µg/mL
Saccharomyces cerevisiae; Table 14, Saccharomyces cerevisiae
  MIC: 125 µg/mL
Streptococcus agalactiae; Table 11, Strepococcus agalactiae
  MIC: 125 µg/mL
Streptococcus agalactiae; Table 13, Streptococcus agalactiae
  MIC: 62.50 µg/mL
Streptococcus agalactiae; Table 14, Streptococcus agalactiae
  MIC: 62.50 µg/mL
Staphylococcus aureus; Table 11, Staphylococcus aureus
  MIC: 125 µg/mL
Staphylococcus aureus; Table 13, Staphylococcus aureus
  MIC: 125 µg/mL
Staphylococcus aureus; Table 14, Staphylococcus aureus
  MIC: 125 µg/mL
Nocardia asteroides [2]; Table 11, Nocardia asteroides
  MIC: 125 µg/mL
Nocardia asteroides [2]; Table 13, Nocardia asteroides
  MIC: 62.50 µg/mL
Nocardia asteroides [2]; Table 14, Nocardia asteroides
  MIC: 62.50 µg/mL
Pseudomonas aeruginosa; Table 11, Pseudomonas aeruginosa
  MIC: > 1,000 μg/ml
Pseudomonas aeruginosa; Table 13, Pseudomonas aeruginosa
  MIC: > 1,000 μg/ml
Pseudomonas aeruginosa; Table 14, Pseudomonas aeruginosa
  MIC: > 1,000 μg/ml
Escherichia coli; Table 11, Escherichia coli
  MIC: > 1,000 μg/ml
Escherichia coli; Table 13, Escherichia coli
  MIC: 500 µg/mL
Escherichia coli; Table 14, Escherichia coli
  MIC: 500 µg/mL
Candida albicans; Table 11, Candida albicans
  MIC: 125 µg/mL
Candida albicans; Table 13, Candida albicans
  MIC: 125 µg/mL
Candida albicans; Table 14, Candida albicans
  MIC: 125 µg/mL
